Measured values reported in patent US20050245399A1, “Pyrazole derivatives as herbicidal compositions containing them” (ISHIHARA SANGYO KAISHA, LTD., priority 2004, published 2005).

What was measured:
Type in all cases: in vivo
[1] = system: crabgrass (Digitaria sanguinalis L.), DIGSA; experiment: Test Example 2 post-emergence (foliage treatment) herbicidal activity, DIGSA; details: 63 g a.i./ha
How it was run: (§1)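 Seeds are sown in upland soil in pots, and seedlings are sprayed once they reach set leaf stages (pigweed 0.1-1.5, barnyardgrass 1.1-2.1, crabgrass 1.0-2.0, rice 1.0-2). The formulated compound goes on in 500 L/ha water containing 0.1% (v/v) spreader. Effect is judged by eye 20-23 days on, as percent control.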

[2] = system: barnyardgrass (Echinochiloa oryzicola: ECHOR); experiment: Test Example 3 water application herbicidal activity (paddy), ECHOR; details: 63 g a.i./ha, water application under submerged condition at 0.5 leaf stage, visually observed 14th day after application; 0 = untreated control, 100 = complete kill
Excerpt: (§2) Paddy field soil was put into a 1/1,000,000 ha pot and seeds of barnyardgrass (Echinochiloa oryzicola: ECHOR) and japanese bulrush (Scirpus juncoides: SCPJO) were sown and slightly covered with soil. Then the pot was left to stand still in a greenhouse in a state where the depth of flooding water was from 0.5 to 1 cm, and one day later, tubers of japanese ribbon wapato (Sagittaria pygmaea: SA GPY) were planted. Thereafter, the depth of flooding water was maintained at a level of from 3 to 4 cm, and when barnyardgrass and japanese bulrush reached a 0.5 leaf stage, an aqueous diluted solution of a wettable powder or emulsifiable concentrate having the compound of the present invention formulated in accordance with a usual formulation method, was uniformly applied under submerged condition by a pipette so that the dose of the active ingredient would be at a predetermined level. On the other hand, paddy filed soil was put into a 1/1,000,000 ha pot and puddled and leveled, and the depth of flooding water was from 3 to 4 cm. One day later, rice (Oryza sativa L.: ORYSA) of 2 leaf stage was transplanted in a depth of 3 cm. On the 4th day after the transplantation, the compound of the present invention was applied in the same manner as described above. On the 14th day after the application of the herbicide, the growth of barnyardgrass, japanese burlush and japanese ribbon wapato was visually observed and on the 21st day after the application of the herbicide, the growth of rice was visually observed, and the herbicidal effects were evaluated by growth controlling degrees (%) ranging from 0 (equivalent to the untreated control) to 100 (complete kill), whereby the results shown in Table 6, were obtained. Compound Nos. in Table 6 correspond to Compound Nos. in Table 1 and 2 given hereinbefore.

[3] = system: prickly sida (Sida spinosa L.), SIDSP; experiment: Test Example 2 post-emergence (foliage treatment) herbicidal activity, SIDSP; details: 63 g a.i./ha
How it was run: (§3)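 Foliar spray of formulated compound (500 L/ha dilution water, 0.1% v/v spreader) onto young potted plants at defined leaf stages. Scored 0-100% by visual inspection 20-23 d post-spray.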

[4] = system: rice (Oryza sativa L.), ORYSA; experiment: Test Example 2 post-emergence (foliage treatment) herbicidal activity, ORYSA; details: 63 g a.i./ha
How it was run: as §1

[5] = system: green foxtail (Setaria viridis L.), SETVI; experiment: Test Example 2 post-emergence (foliage treatment) herbicidal activity, SETVI; details: 63 g a.i./ha
How it was run: as §3

[6] = system: soybean (Glycine max Merr.), GLXMA; experiment: Test Example 2 post-emergence (foliage treatment) herbicidal activity, GLXMA; details: 63 g a.i./ha
How it was run: as §3

[7] = system: barnyardgrass (Echinochloa crus-galli L.): ECHCG; experiment: Test Example 1 pre-emergence herbicidal activity, ECHCG; details: visually observed 20th to 23rd day after application
How it was run: (§4)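 Plants were sown in pots of upland field soil and treated the following day, before emergence, with the formulated compound sprayed in 500 L/ha water. Herbicidal effect was judged by eye 20–23 days later on a 0–100% scale.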

[8] = system: corn (Zea mays L.), ZEAMX; experiment: Test Example 2 post-emergence (foliage treatment) herbicidal activity, ZEAMX; details: 63 g a.i./ha
How it was run: as §3

[9] = system: crabgrass (Digitaria sanguinalis L.): DIGSA; experiment: Test Example 1 pre-emergence herbicidal activity, DIGSA; details: visually observed 20th to 23rd day after application
How it was run: as §4

[10] = system: wheat (Triticum aestivum L.), TRZAX; experiment: Test Example 2 post-emergence (foliage treatment) herbicidal activity, TRZAX; details: 63 g a.i./ha
How it was run: as §3

[11] = system: wheat (Triticum aestivum L.): TRZAX; experiment: Test Example 1 pre-emergence herbicidal activity, TRZAX; details: visually observed 20th to 23rd day after application
How it was run: as §4

[12] = system: green foxtail (Setaria viridis L.): SETVI; experiment: Test Example 1 pre-emergence herbicidal activity, SETVI; details: visually observed 20th to 23rd day after application
How it was run: as §4

[13] = system: redroot pigweed (Amaranthus retroflexus L.): AMARE; experiment: Test Example 1 pre-emergence herbicidal activity, AMARE; details: visually observed 20th to 23rd day after application
How it was run: as §4

[14] = system: velvetleaf (Abutilon theophrasti): ABUTH; experiment: Test Example 1 pre-emergence herbicidal activity, ABUTH; details: visually observed 20th to 23rd day after application
How it was run: as §4

[15] = system: corn (Zea mays L.): ZEAMX; experiment: Test Example 1 pre-emergence herbicidal activity, ZEAMX; details: visually observed 20th to 23rd day after application
How it was run: as §4

[16] = system: prickly sida (Sida spinosa L.): SEDSP; experiment: Test Example 1 pre-emergence herbicidal activity, SIDSP; details: visually observed 20th to 23rd day after application
How it was run: as §4

[17] = system: soybean (Glycine max Merr.): GLXMA; experiment: Test Example 1 pre-emergence herbicidal activity, GLXMA; details: visually observed 20th to 23rd day after application
How it was run: as §4

[18] = system: japanese bulrush (Scirpus juncoides: SCPJO); experiment: Test Example 3 water application herbicidal activity (paddy), SCPJO; details: 63 g a.i./ha, water application under submerged condition at 0.5 leaf stage, visually observed 14th day after application; 0 = untreated control, 100 = complete kill
Excerpt: as §2

[19] = system: rice (Oryza sativa L.: ORYSA); experiment: Test Example 3 water application herbicidal activity (paddy), transplanted rice ORYSA; details: 63 g a.i./ha, water application 4th day after transplantation of 2 leaf stage rice, visually observed 21st day after application; 0 = untreated control, 100 = complete kill
Excerpt: as §2

[20] = system: redroot pigweed (Amaranthus retroflexus L.), AMARE; experiment: Test Example 2 post-emergence (foliage treatment) herbicidal activity, AMARE; details: 63 g a.i./ha
How it was run: as §1

[21] = system: velvetleaf (Abutilon theophrasti), ABUTH; experiment: Test Example 2 post-emergence (foliage treatment) herbicidal activity, ABUTH; details: 63 g a.i./ha
How it was run: as §3

[22] = system: barnyardgrass (Echinochloa crus-galli L.), ECHCG; experiment: Test Example 2 post-emergence (foliage treatment) herbicidal activity, ECHCG; details: 63 g a.i./ha
How it was run: as §1

[23] = system: rice (Oryza sativa L.): ORYSA; experiment: Test Example 1 pre-emergence herbicidal activity, ORYSA; details: visually observed 20th to 23rd day after application
How it was run: as §4

[24] = system: japanese ribbon wapato (Sagittaria pygmaea: SA GPY); experiment: Test Example 3 water application herbicidal activity (paddy), SAGPY; details: 63 g a.i./ha, water application under submerged condition, tubers planted, visually observed 14th day after application; 0 = untreated control, 100 = complete kill
Excerpt: as §2

Row | Structure (SMILES) | growth controlling degree, DIGSP [1] [%] | growth controlling degrees (%) ECHOR [2] [%] | growth controlling degree, SIDSP [3] [%] | growth controlling degree, ORYSA [4] [%] | growth controlling degree, GLXMA [6] [%] | growth controlling degree, ZEAMX [8] [%] | growth controlling degree, TRZAX [10] [%] | growth controlling degrees (%) SCPJO [18] [%] | growth controlling degree, AMARE [20] [%] | growth controlling degree, ABUTH [21] [%] | growth controlling degree, ECHCO [22] [%] | Pre-emergence Herbicidal Activity ECHCG (growth controlling degree) ([7]; Rate 63 g a.i./ha) [%] | Pre-emergence Herbicidal Activity DIGSP (growth controlling degree) ([9]; Rate 63 g a.i./ha) [%] | Pre-emergence Herbicidal Activity TRZAX (growth controlling degree) ([11]; Rate 63 g a.i./ha) [%] | Pre-emergence Herbicidal Activity SETVI (growth controlling degree) ([12]; Rate 63 g a.i./ha) [%] | Pre-emergence Herbicidal Activity AMARE (growth controlling degree) ([13]; Rate 63 g a.i./ha) [%] | Pre-emergence Herbicidal Activity ABUTH (growth controlling degree) ([14]; Rate 63 g a.i./ha) [%] | Pre-emergence Herbicidal Activity ZEAMX (growth controlling degree) ([15]; Rate 63 g a.i./ha) [%] | Pre-emergence Herbicidal Activity SIDSP (growth controlling degree) ([16]; Rate 63 g a.i./ha) [%] | Pre-emergence Herbicidal Activity GLXMA (growth controlling degree) ([17]; Rate 63 g a.i./ha) [%] | other results
1 | Cn1nc(-c2c(F)cc(Cl)c(OC(F)F)c2N(C=O)Cc2ccccc2)c(Cl)c1OC(F)F [Compound 1-86] | 30 | 60 | 60 | 0 | 40 | 0 | 0 | 50 | 100 | 0 | 0 | – | – | – | – | – | – | – | – | – | growth controlling degree, SETVI [5]: 10%; Pre-emergence Herbicidal Activity ECHCG (growth controlling degree) ([7]; Rate 125 g a.i./ha): 0%; Pre-emergence Herbicidal Activity DIGSP (growth controlling degree) ([9]; Rate 125 g a.i./ha): 0%; Pre-emergence Herbicidal Activity TRZAX (growth controlling degree) ([11]; Rate 125 g a.i./ha): 0%; Pre-emergence Herbicidal Activity SETVI (growth controlling degree) ([12]; Rate 125 g a.i./ha): 0%; Pre-emergence Herbicidal Activity AMARE (growth controlling degree) ([13]; Rate 125 g a.i./ha): 30%; Pre-emergence Herbicidal Activity ABUTH (growth controlling degree) ([14]; Rate 125 g a.i./ha): 0%; Pre-emergence Herbicidal Activity ZEAMX (growth controlling degree) ([15]; Rate 125 g a.i./ha): 0%; Pre-emergence Herbicidal Activity SIDSP (growth controlling degree) ([16]; Rate 125 g a.i./ha): 0%; Pre-emergence Herbicidal Activity GLXMA (growth controlling degree) ([17]; Rate 125 g a.i./ha): 0%; growth controlling degrees (%) ORYSA [19]: 10%; Pre-emergence Herbicidal Activity ORYSA (growth controlling degree) ([23]; Rate 125 g a.i./ha): 0%
2 | COc1c(Cl)cc(F)c(-c2nn(C)c(OC(F)F)c2Cl)c1NC(=O)Oc1ccccc1 [Compound 1-67] | 70 | 100 | 100 | 60 | 70 | 30 | 30 | 100 | 100 | 100 | 70 | 50 | 100 | 10 | 100 | 100 | 70 | 0 | 80 | 0 | growth controlling degrees (%) SAGPY [24]: 100%; Pre-emergence Herbicidal Activity ORYSA (growth controlling degree) ([23]; Rate 63 g a.i./ha): 40%
3 | COc1c(Cl)cc(F)c(-c2nn(C)c(OC(F)F)c2Cl)c1NC(=O)OCC(C)C [Compound 1-64] | 70 | 100 | 100 | 30 | 50 | 30 | 30 | 70 | 100 | 100 | 90 | 40 | 90 | 10 | 80 | 100 | 60 | 0 | 80 | 0 | growth controlling degree, SETVI [5]: 100%; growth controlling degrees (%) ORYSA [19]: 40%; Pre-emergence Herbicidal Activity ORYSA (growth controlling degree) ([23]; Rate 63 g a.i./ha): 10%
4 | CCCOC(=O)Nc1c(OC)c(Cl)cc(F)c1-c1nn(C)c(OC(F)F)c1Cl [Compound 1-72] | 80 | 100 | 100 | 60 | 70 | 40 | 20 | 60 | 100 | 100 | 80 | 98 | 100 | 40 | 100 | 100 | 100 | 10 | 100 | 0 | growth controlling degrees (%) SAGPY [24]: 100%; Pre-emergence Herbicidal Activity ORYSA (growth controlling degree) ([23]; Rate 63 g a.i./ha): 40%
